Assay results reported in patent US10820588B2, “Compositionally and morphologically controlled nanostructures for delivery of micronutrients and suppression of disease in agriculture” (Wisconsin Alumni Research Foundation, priority 2018, dated 2020).

Experiments:
Type in all cases: in vivo
[1] = tested on: Fusarium wilt of watermelon; test: Field experiment Location 2, Fusarium wilt of watermelon; details: location 2, 400 mg/L, not statistically significant
Method: (§1) Field experiments were conducted to evaluate if successful greenhouse results would translate to a field application. The following six treatments were established at two field locations (Hamden, Conn.—Location 1; and Griswold, Conn.—Location 2) to evaluate their effect on growth and Fusarium wilt of watermelon: CuO nanoparticles, Cu3(PO4)2.3H2O nanosheets, commercial powders of CuO and Cu3(PO4)2, CuSO4, and untreated controls. The commercial powders are not nanostructured as particles within the powders typically have a range of sizes from about 1 μm to 1 mm. Again, the primary purpose of this work was to compare the efficacy of the two nanoscale materials, and the suspensions of CuO and Cu3(PO4)2 commercial powders and the solution of CuSO4 were included only for comparison. It is noted that the CuO and Cu3(PO4)2 materials were used at concentrations where there were solid particles present in the liquid formulations, so those liquid formulations are best characterized as being suspensions with some dissolved ions. By contrast, because of its high solubility, CuSO4 in liquid is completely dissolved and thus is a true solution (only ions present and no remaining solid). […]
(§2) Field microplots were prepared in early June, 2017. […] Total plant biomass and fruit mass were determined at harvest, and select tissues were dried for analysis by ICP mass spectrometry (ICP-MS) as noted below.

[2] = tested on: Fusarium wilt of watermelon; test: Field experiment Location 1, Fusarium wilt of watermelon
Method: as §1, §2

[3] = tested on: F. oxysporum f. sp. niveum; test: Greenhouse foliar spray, watermelon with or without Fusarium; details: disease conditions
Method: Watermelon seeds (Citrullus lanatus Thunb. cv Sugar Baby, Harris Seed Co., Rochester, N.Y.) were germinated in soilless potting mix (ProMix BX, Premier Hort Tech, Quakertown, Pa., USA) and fertilized once after three weeks with 40 mL of Peter's soluble 20-10-20 (N—P—K) fertilizer (R. J. Peters Inc., Allentown, Pa.). When plants reached the 3- to 4-leaf stage, uniform medium size plants were selected for NP exposure. […] For CuO NP, the suspension was sonicated using a probe sonicator for 2 min in an ice bath. […] One to two drops (1 ml/L) of Regulaid® nonionic surfactant were added into the suspensions prior to exposure. Polyvinylidene chloride film (Saran™ wrap) was fitted around the stem to prevent soil exposure to the NP suspensions. Although the primary purpose of this work was to compare different nanoscale materials, bulk CuO and CuSO4 (Sigma, St. Louis, Mo.) were used for additional comparative purposes in the greenhouse experiments. […]
F. oxysporum f. sp. niveum was prepared on Japanese millet, as previously described. […] The progress of disease as represented by the cumulative ratings of disease on replicate plants was plotted over time and the AUDPC was calculated using the trapezoid rule: AUDPC=Σ[Yi±Y(i±1)]/2×(t(i±1)−ti), where Yi=the disease rating at time ti. […]

O=S(=O)([O-])[O-].[Cu+2] [CuSO4]
increase of fruit yield [1]: 38.2% | disease result compared with the nanomaterial treatments ([2]; field, 400 mg/L): statistically equivalent | increase of yield (total wet mass of fruit per plot) over the disease condition ([2]; location 1, 400 mg/L): no such benefit | effect on disease-induced decrease in vine length [3]: had no impact
